Converted amounts (≈) assume the structure as drawn. Like-named read-outs stand apart in the source and are kept apart here.
How the values were obtained:
[1] = test system: Helicobacter pylori (ATCC43504); test: MIC and MBC by microdilution method according to CLSI guideline; format: cell-based; conditions: ATCC43504, 72 h
Method: Helicobacter pylori (ATCC43504): Type strain for antibiotic susceptibility testing according to the Clinical & Laboratory Standards Institute (CLSI) guidelines.
(§1) The medium was prepared using Müller-Hinton broth (MH, Difco Inc., Sparks, MD, USA) [w/7% […] (Sigma CO., LTD., St. Louis, USA), 0.4% isovitalex (BBL Inc., Sparks, MD, USA)].
(§2) An antibiotic susceptibility testing was performed using the microdilution method according to the CLSI guideline. Two-fold serial dilution was performed in 12 steps in a 48-well plate with the highest concentration of 128 µg/mL for amocixillin and clarithromycin and 256 µg/mL for omeprazole. The bacteria were inoculated into wells containing only medium without antibiotics to prepare the positive control group, and the wells containing only medium without antibiotics or inoculated bacteria were used as the negative control group. The concentration range of the test substances, zastaprazan (JP-1366) and fexuprazan, was determined through preliminary experiments. H. pylori stored in a deep freezer (-70 °C or lower) was thawed, inoculated onto BHI agar (w/7% laked horse blood and 0.4% isovitalex), cultured at 37 °C under microaerobic conditions of 5% O2, 10% CO2, and 85% N2 gas for three days, and then subcultured onto a fresh medium. The cultured bacteria were harvested, suspended in PBS, inoculated into each well at a concentration of 5 x 10^5 CFU/mL, and then cultured at 37 °C under microaerobic conditions of 5% O2, 10% CO2, and 85% N2 gas for three days. The lowest concentration at which no bacterial growth was observed was determined as the MIC. Thereafter, 10 µL of the culture solution from each well at different concentrations was spotted onto BHI agar (w/7% laked horse blood and 0.4% isovitalex) containing no antibiotics and cultured for three days at 37 °C under microaerobic conditions. The lowest concentration at which no bacteria growth occurred was determined as the MBC.
To determine the MBC, 10 µl of the culture solution from each well was spotted on a solid medium containing no antibiotics or test substances after the MIC determination, and bacterial growth was examined.
(§3) All tests were performed in duplicate, and the results were determined by conducting the experiments in triplicate.

[2] = test system: Helicobacter pylori 26695 (ATCC700329); test: as above; format: cell-based; conditions: ATCC700329, 72 h
Method: Helicobacter pylori 26695 (ATCC700329): A strain isolated from a patient known to be associated with the development of gastric cancer. The strain is cytotoxin associated gene (CagA)-positive and vacuolating cytotoxin (VacA)-positive and has a well-known genetic background, so it is mainly used for research purposes.
as §1
An antibiotic susceptibility testing was performed using the microdilution method according to the CLSI guideline. […] The concentration range of the test substances, zastaprazan (JP-1366) and fexuprazan, was determined through preliminary experiments. […] The lowest concentration at which no bacterial growth was observed was determined as the MIC. […] The lowest concentration at which no bacteria growth occurred was determined as the MBC.
To determine the MIC, visual inspection was performed and the absorbance was measured at 600 nm, and the growth was confirmed based on the absorbance of the negative control group containing only the medium. […]
as §3

[3] = test system: Helicobacter pylori SS1 (mouse colonizing strain); test: as above; format: cell-based; conditions: 72 h, 3 days; for MBC: spotted on antibiotic-free BHI agar, unit from method b141/b236, table prints none
Method: Helicobacter pylori SS1 (mouse colonizing strain): A strain known as Sydney strain. The strain is CagA-positive and VacA-positive and has been confirmed to infect and colonize in C57BL/6 mice. The strain is used in animal testing.
as §1
as §2, with “Thereafter, 10 µL of the culture solution from each well at different concentrations was spotted onto BHI agar (w/7% laked horse blood and 0.4% isovitalex) containing no antibiotics and cultured for three days at 37 °C under microaerobic conditions.” left out, “MBC. […]” for “MBC.”
as §3

[4] = test system: Helicobacter pylori SS1 (mouse colonizing strain); test: Clarithromycin MIC and MBC by microdilution with or without JP-1366 in the medium; format: cell-based; conditions: medium containing zastaprazan (JP1366) at 1/2 MIC concentration vs MH medium
Method: Helicobacter pylori SS1 (mouse colonizing strain): Known as Sydney strain, the strain is CagA-positive and VacA-positive, and has been confirmed to colonize mice C57BL/6 and is used in animal experiments.
Zastaprazan (JP-1366) was supplied as a product prepared at a concentration of 10 mM in dimethyl sulfoxide (DMSO) solvent, and clarithromycin was prepared at a concentration of 5 mg/mL in DMSO solvent.
An antibiotic susceptibility test was performed by the microdilution method according to CLSI guideline.
The antibiotic susceptibility test was performed using MH broth (7% horse serum, 0.4% IsoVitalex), and the susceptibility test medium for zastaprazan (JP-1366) was prepared at this time. […] Using the medium prepared in this way, clarithromycin was serially diluted 2-fold and in 16 steps, with a maximum concentration of 16 µg/mL. Wells containing only the medium without antibiotics were used as a negative control group, and wells inoculated only with the bacteria in the medium without antibiotics were used as a positive control group. […] The lowest concentration of the sample at which no bacterial growth was observed was determined as the MIC. […] The lowest concentration at which no bacterial growth was observed was determined as the minimum bactericidal concentration(MBC). […]

[5] = test system: patients with erosive gastroesophageal reflux disease; test: Phase 2 clinical trial, healing of mucosal breaks and symptom assessment; format: in vivo, human; conditions: within 24 hours and for seven days after administration; subject diary
Method: H. pylori testing was performed by 13C-urea breath test (13C-UBT), gastroscopy (Campylobacter-like organism test, CLO), or tissue biopsy to confirm H. pylori positivity/negativity. […] This clinical trial was a randomized, double-blind, active-controlled, multicenter, phase 2 clinical trial targeting patients with erosive gastroesophageal reflux disease. After the subjects gave written consent to participate in the clinical trial, a screening test was conducted. […] At this time, the subjects were stratified by grade (A, B, C, D) according to the LA classification system classified by upper gastrointestinal endoscopy. Randomly assigned subjects took the clinical trial drug once a day according to the assigned administration group for four weeks. After four weeks of administration of the clinical trial drug, the subjects visited the clinical trial institution to undergo an upper gastrointestinal endoscopy to assess whether they were healed. Healed subjects underwent a Safety Follow-Up (F/U) two weeks later, and unhealed subjects were administered the clinical trial drug for additional four weeks (a total of 8 weeks of administration) and visited the clinical trial institution to undergo an upper gastrointestinal endoscopy. […]

[6] = Solubility observed during MIC analysis; format: physicochemical; conditions: in MIC medium; formation of suspension, interference in visual/absorbance analysis
From the text: Referring to Table 4 below, since the solubility of zastaprazan (JP-1366) was low, the MIC analysis was difficult (poor solubility, formation of suspension, interference in visual/absorbance analysis), so the inhibitory effect on the H. pylori strains was confirmed through the MBC index.

CC1(C)S[C@@H]2[C@H](NC(=O)[C@H](N)c3ccc(O)cc3)C(=O)N2[C@H]1C(=O)O [Amoxicillin, Amoxicillin Trihydrate]
MBC ([1]; strain 43504, spotted on antibiotic-free BHI agar, 3 days, unit from method b141/b236, table prints none, read-out: MBC): 0.032 µg/mL
MBC ([2]; strain 26695, spotted on antibiotic-free BHI agar, 3 days, unit from method b141/b236, table prints none, read-out: MBC): 0.032 µg/mL
MBC [3]: 0.25 µg/mL

CC[C@H]1OC(=O)[C@H](C)[C@@H](O[C@H]2C[C@@](C)(OC)[C@@H](O)[C@H](C)O2)[C@H](C)[C@@H](O[C@@H]2O[C@H](C)C[C@H](N(C)C)[C@H]2O)[C@](C)(OC)C[C@@H](C)C(=O)[C@H](C)[C@@H](O)[C@]1(C)O [Clarithromycin]
MBC lowered by [4]: about 1/2
MBC [1]: 0.063 µg/mL (≈ 0.0842 µM)
MIC [1]: 0.032 µg/mL (≈ 0.0428 µM)
MBC [2]: 0.125 µg/mL (≈ 0.167 µM)
MIC ([3]; 37 °C, microaerobic, unit from method b141, table prints none): 0.032 µg/mL (≈ 0.0428 µM)
MBC [3]: 0.125 µg/mL (≈ 0.167 µM)

Cc1cccc(C)c1CNc1cc(C(=O)N2CCC2)cn2c(C)c(C)nc12.O=C(O)CC(O)(CC(=O)O)C(=O)O [JP-1366, azetidin-1-yl{8-[(2,6-dimethylbenzyl)amino]-2,3-dimethylimidazo[1,2-a]pyridin-6-yl}methanone citrate salt]
evaluation of all symptoms (heartburn, acid reflux, heartburn/acid reflux) [5]: all symptoms tended to be ameliorated
solubility [6]: low

COc1ccc2[nH]c([S+]([O-])Cc3ncc(C)c(OC)c3C)nc2c1 (stereo not shown) [Omeprazole]
MBC [1]: 64 µg/mL (≈ 185 µM)
MIC [1]: 32 µg/mL (≈ 92.6 µM)
